Experimental data published in patent US9464076B2, “Benzothiophene derivative” (Daiichi Sankyo Company, Limited, priority 2013, dated 2016).
Where a name gives a salt, the structure may show the parent alone.

Each compound was assayed against PDE10A (Homo sapiens (Human), UniProt Q9Y233) (assay: Measurement of PDE10A inhibitory activity-2 (PDE10A fraction prepared from MOLT-4 cells)). Conditions: PDE10A fraction from MOLT-4 cells (peak around 250 mM NaCl).
Type: biochemical
Procedure: A human acute lymphoblastic lymphoma T cell line MOLT-4 (which can be purchased under ATCC No. CRL-1582 from ATCC) was cultured in an RPMI1640 medium containing 10% fetal bovine serum to obtain 5×10^8 MOLT-4 cells. The cells were recovered by centrifugation and suspended in 10 ml of buffer solution A (25 mM Tris-HCl, 5 mM 2-mercaptoethanol, 2 mM benzamidine, 2 mM EDTA, and 0.1 mM 4-(2-aminoethyl)benzenesulfonyl hydrochloride, pH 7.5). The cells were homogenized using a Polytron homogenizer and centrifuged (4° C., 25,000 g, 10 minutes). Then, the supernatant was further ultracentrifuged (4° C., 100,000 g, 60 minutes). The obtained supernatant was filtered through a 0.2 μm filter to obtain a soluble fraction.
HiTrap Q HP column (5 ml×2, GE Healthcare Japan Corp.) equilibrated with buffer solution A was charged with the obtained soluble fraction. Phosphodiesterase was eluted with 300 ml of buffer solution A containing a linear gradient solution of 0 to 0.8 M NaCl to recover sixty 5-ml fractions. Each fraction was tested for cAMP-metabolizing phosphodiesterase activity.
On the other hand, total RNA was prepared from Jurkat cells, one type of human T cell, and similarly subjected to RT-PCR. […] Eur J Biochem. 1999, 266 (3), 1118-2 has reported that PDE10A from the rat striatum and testis is eluted as an active peak centered around 250 mM NaCl.
For these reasons, this fraction was used as a solution for the evaluation of PDE10A inhibitory activity. The obtained solution was used to calculate the inhibitory activity (IC50) of a test compound in the same way as in the aforementioned test.

Sequence of PDE10A (Q9Y233 whole entry): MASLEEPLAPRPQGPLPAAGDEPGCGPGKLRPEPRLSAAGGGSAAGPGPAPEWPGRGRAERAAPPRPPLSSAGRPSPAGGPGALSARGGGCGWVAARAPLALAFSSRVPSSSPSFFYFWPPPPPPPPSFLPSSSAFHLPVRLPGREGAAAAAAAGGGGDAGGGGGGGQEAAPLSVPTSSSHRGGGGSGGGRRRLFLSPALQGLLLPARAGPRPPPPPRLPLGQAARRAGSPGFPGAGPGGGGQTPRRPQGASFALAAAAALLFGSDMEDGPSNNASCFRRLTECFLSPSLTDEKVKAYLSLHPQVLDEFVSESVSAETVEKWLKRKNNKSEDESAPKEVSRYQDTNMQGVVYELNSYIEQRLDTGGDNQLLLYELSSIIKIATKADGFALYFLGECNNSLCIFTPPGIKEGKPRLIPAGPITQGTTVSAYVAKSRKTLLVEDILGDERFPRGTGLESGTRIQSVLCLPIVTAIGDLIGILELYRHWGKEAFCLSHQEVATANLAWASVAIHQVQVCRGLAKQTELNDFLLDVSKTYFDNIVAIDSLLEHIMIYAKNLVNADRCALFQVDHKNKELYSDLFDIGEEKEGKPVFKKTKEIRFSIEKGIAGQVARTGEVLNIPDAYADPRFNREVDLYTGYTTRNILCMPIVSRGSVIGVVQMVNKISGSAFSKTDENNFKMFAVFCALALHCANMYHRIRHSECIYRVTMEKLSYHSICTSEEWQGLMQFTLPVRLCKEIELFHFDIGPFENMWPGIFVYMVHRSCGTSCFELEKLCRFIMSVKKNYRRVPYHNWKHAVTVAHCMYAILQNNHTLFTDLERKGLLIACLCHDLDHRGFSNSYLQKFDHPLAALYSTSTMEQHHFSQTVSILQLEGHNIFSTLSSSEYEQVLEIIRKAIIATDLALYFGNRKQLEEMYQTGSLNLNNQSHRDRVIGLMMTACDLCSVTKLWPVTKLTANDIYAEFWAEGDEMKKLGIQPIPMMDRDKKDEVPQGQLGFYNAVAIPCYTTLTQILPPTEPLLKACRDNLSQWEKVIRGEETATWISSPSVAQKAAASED

IC50 [nM]	SMILES
2.9	COCc1ccc(C(C)=O)c2sc(C(=O)Nc3cc(CN4CCNCC4)c4ccccc4n3)c(C)c12 [Example 124, 7-Acetyl-4-(methoxymethyl)-3-methyl-N-(4-(piperazin-1-ylmethyl)quinolin-2-yl)benzo[b]thiophene-2-carboxamide]
0.86	COCc1ccc(C(C)=O)c2sc(C(=O)Nc3ccc4c(COC(C)=O)cccc4n3)c(C)c12 [Example 83, (2-(7-Acetyl-4-(methoxymethyl)-3-methylbenzo[b]thiophene-2-carboxamido)quinolin-5-yl)methylacetate]
0.11	COCc1ccc(C(C)=O)c2sc(C(=O)Nc3ccc4c(C(=O)N5CC(F)C5)cccc4n3)c(C)c12 [Example 99, 7-Acetyl-N-(5-((3-fluoroazetidin-1-yl)carbonyl)quinolin-2-yl)-4-(methoxymethyl)-3-methylbenzo[b]thiophene-2-carboxamide]
0.21	COCc1ccc(C(C)=O)c2sc(C(=O)Nc3ccc4c(C(=O)N5CCC5)cccc4n3)c(C)c12 [Example 98, 7-Acetyl-N-(5-((azetidin-1-yl)carbonyl)quinolin-2-yl)-4-(methoxymethyl)-3-methylbenzo[b]thiophene-2-carboxamide]
0.74	COCc1ccc(C(C)=O)c2sc(C(=O)Nc3ccc4c(COC(=O)[C@@H](N)CO)cccc4n3)c(C)c12 [Example 91, (S)-(2-(7-Acetyl-4-(methoxymethyl)-3-methylbenzo[b]thiophene-2-carboxamido)quinolin-5-yl)methyl-2-amino-3-hydroxypropanoate]
0.12	COCc1cccc2nc(NC(=O)c3sc4c(C(C)=O)ccc(CO)c4c3C)ccc12 [Example 113, 7-Acetyl-4-(hydroxymethyl)-N-(5-(methoxymethyl)quinolin-2-yl)-3-methylbenzo[b]thiophene-2-carboxamide]
0.22	[2H]C([2H])([2H])OC1CN(C(=O)c2cccc3nc(NC(=O)c4sc5c(C(C)=O)ccc(C([2H])([2H])OC)c5c4C)ccc23)C1 [Example 123, 7-Acetyl-N-(5-((3-(^2H3)methoxyazetidin-1-yl)carbonyl)quinolin-2-yl)-4-(methoxy(^2H2)methyl)-3-methylbenzo[b]thiophene-2-carboxamide]
12	COCc1ccc(C(C)=O)c2sc(C(=O)Nc3ccc4c(C(=O)OC)cccc4n3)c(C)c12 [Example 92, Methyl 2-(7-acetyl-4-(methoxymethyl)-3-methylbenzo[b]thiophene-2-carboxamido)quinoline-5-carboxylate]
0.29	[2H]C([2H])([2H])OC1CN(C(=O)c2cccc3nc(NC(=O)c4sc5c(C(C)=O)ccc(COC)c5c4C)ccc23)C1 [Example 122, 7-Acetyl-N-(5-((3-(^2H3)methoxyazetidin-1-yl)carbonyl)quinolin-2-yl)-4-(methoxymethyl)-3-methylbenzo[b]thiophene-2-carboxamide]
1.6	COCc1ccc(C(C)=O)c2sc(C(=O)Nc3ccc4c(C)cccc4n3)c(C)c12 [Example 108, 7-Acetyl-4-(methoxymethyl)-3-methyl-N-(5-methylquinolin-2-yl)benzo[b]thiophene-2-carboxamide]
2	COCc1ccc(C(C)=O)c2sc(C(=O)Nc3ccc4c(COC(F)F)cccc4n3)c(C)c12 [Example 73, 7-Acetyl-N-(5-((difluoromethoxy)methyl)quinolin-2-yl)-4-(methoxymethyl)-3-methylbenzo[b]thiophene-2-carboxamide hydrochloride]

The remaining lines, values behind:

SMILES	IC50 [nM]
COCc1ccc(C(C)=O)c2sc(C(=O)Nc3cc(CN4CCCC4)c4ccccc4n3)c(C)c12 [Example 43, 7-Acetyl-4-(methoxymethyl)-3-methyl-N-(4-(pyrrolidin-1-ylmethyl)quinolin-2-yl)benzo[b]thiophene-2-carboxamide]	6.2
Cc1c(C(=O)Nc2cc(C(C)(C)O)c3ccccc3n2)sc2c(C(=O)C3CCCC3)cccc12 [Example 25, 7-(Cyclopentylcarbonyl)-N-(4-(2-hydroxypropan-2-yl)quinolin-2-yl)-3-methylbenzo[b]thiophene-2-carboxamide]	4
Cc1c(C(=O)Nc2cc(C(C)(C)O)c3ccccc3n2)sc2c(C(=O)CC(C)C)cccc12 [Example 23, N-(4-(2-Hydroxypropan-2-yl)quinolin-2-yl)-3-methyl-7-(3-methylbutanoyl)benzo[b]thiophene-2-carboxamide]	10
CC(=O)c1ccc(C(C)=O)c2c(C)c(C(=O)Nc3cc(C(C)O)c4ccccc4n3)sc12 (stereo not drawn) [Example 13, 4,7-Diacetyl-N-(4-(1-hydroxyethyl)quinolin-2-yl)-3-methylbenzo[b]thiophene-2-carboxamide]	2
CC(=O)c1ccc(COC(C)C)c2c(C)c(C(=O)Nc3cc(C(C)(C)O)c4ccccc4n3)sc12 [Example 31, 7-Acetyl-N-(4-(2-hydroxypropan-2-yl)quinolin-2-yl)-4-(isopropoxymethyl)-3-methylbenzo[b]thiophene-2-carboxamide]	16
CC(=O)c1ccc(C(C)=O)c2c(C)c(C(=O)Nc3cc(CN(C)C(C)=O)c4ccccc4n3)sc12 [Example 15, 4,7-Diacetyl-3-methyl-N-(4-((N-methylacetamido)methyl)quinolin-2-yl)benzo[b]thiophene-2-carboxamide]	2.3
CCOCc1cccc2nc(NC(=O)c3sc4c(C(C)=O)ccc(COC)c4c3C)ccc12 [Example 70, 7-Acetyl-N-(5-(ethoxymethyl)quinolin-2-yl)-4-(methoxymethyl)-3-methylbenzo[b]thiophene-2-carboxamide]	1.6
COCc1ccc(C(C)=O)c2sc(C(=O)Nc3cc(Cl)c4ccccc4n3)c(C)c12 [Example 53, 7-Acetyl-N-(4-chloroquinolin-2-yl)-4-(methoxymethyl)-3-methylbenzo[b]thiophene-2-carboxamide]	18
COc1cc(NC(=O)c2sc3c(C(C)=O)ccc(C(C)=O)c3c2C)nc2ccccc12 [Example 12, 4,7-Diacetyl-N-(4-methoxyquinolin-2-yl)-3-methylbenzo[b]thiophene-2-carboxamide]	4.4
CC(=O)c1ccc(C(C)O)c2c(C)c(C(=O)Nc3cc(C(C)(C)O)c4ccccc4n3)sc12 (stereo not drawn) [Example 9, 7-Acetyl-4-(1-hydroxyethyl)-N-(4-(2-hydroxypropan-2-yl)quinolin-2-yl)-3-methylbenzo[b]thiophene-2-carboxamide]	7.8
CC(=O)c1ccc(C(C)=O)c2c(C)c(C(=O)Nc3cc(CN4CCC(O)C4)c4ccccc4n3)sc12 (stereo not drawn) [Example 51, 4,7-Diacetyl-N-(4-((3-hydroxypyrrolidin-1-yl)methyl)quinolin-2-yl)-3-methylbenzo[b]thiophene-2-carboxamide]	1.5
COCc1ccc(C(C)=O)c2sc(C(=O)Nc3cc(N4CCOCC4)c4ccccc4n3)c(C)c12 [Example 56, 7-Acetyl-4-(methoxymethyl)-3-methyl-N-(4-morpholinoquinolin-2-yl)benzo[b]thiophene-2-carboxamide]	1.1
COCc1ccc(C(C)=O)c2sc(C(=O)Nc3cc(CN4CCC(F)CC4)c4ccccc4n3)c(C)c12 [Example 46, 7-Acetyl-N-(4-((4-fluoropiperidin-1-yl)methyl)quinolin-2-yl)-4-(methoxymethyl)-3-methylbenzo[b]thiophene-2-carboxamide]	0.44
COCc1ccc(C(C)=O)c2sc(C(=O)Nc3cc(CN4CCC(O)C4)c4ccccc4n3)c(C)c12 (stereo not drawn) [Example 35, 7-Acetyl-N-(4-((3-hydroxypyrrolidin-1-yl)methyl)quinolin-2-yl)-4-(methoxymethyl)-3-methylbenzo[b]thiophene-2-carboxamide]	0.29
Cc1c(C(=O)Nc2cc(C(C)(C)O)c3ccccc3n2)sc2c(C(=O)C(C)(C)C)cccc12 [Example 22, N-(4-(2-Hydroxypropan-2-yl)quinolin-2-yl)-3-methyl-7-pivaloylbenzo[b]thiophene-2-carboxamide]	1
COCc1ccc(C(=O)C(C)(C)C)c2sc(C(=O)Nc3cc(CN4CC[C@@H](O)C4)c4ccccc4n3)c(C)c12 [Example 58, (R)—N-(4-((3-Hydroxypyrrolidin-1-yl)methyl)quinolin-2-yl)-4-(methoxymethyl)-3-methyl-7-pivaloylbenzo[b]thiophene-2-carboxamide dihydrochloride]	0.085
CCCCC(=O)c1cccc2c(C)c(C(=O)Nc3cc(C(C)(C)O)c4ccccc4n3)sc12 [Example 20, N-(4-(2-Hydroxypropan-2-yl)quinolin-2-yl)-3-methyl-7-pentanoylbenzo[b]thiophene-2-carboxamide]	10
Cc1c(C(=O)Nc2cc(C(C)(C)O)c3ccccc3n2)sc2c(C(=O)C3CC3)cccc12 [Example 19, 7-(Cyclopropylcarbonyl)-N-(4-(2-hydroxypropan-2-yl)quinolin-2-yl)-3-methylbenzo[b]thiophene-2-carboxamide]	0.92
COCc1ccc(C(C)=O)c2sc(C(=O)Nc3cc(CN4CCCC(O)C4)c4ccccc4n3)c(C)c12 (stereo not drawn) [Example 37, 7-Acetyl-N-(4-((3-hydroxypiperidin-1-yl)methyl)quinolin-2-yl)-4-(methoxymethyl)-3-methylbenzo[b]thiophene-2-carboxamide]	0.5
